US20230295130A1, “COMPOUND USEFUL AS CDK7 KINASE INHIBITOR AND USE THEREOF” (TYK MEDICINES, INC., priority 2020, published 2023)

How the values were obtained:
[1] = system: breast cancer cells MDA-MB 231; test: Cell anti-proliferation experiment, MTT (Table 2); assay type: cell-based; settings: Homo sapiens, MDA-MB-231, 72 h, incubate 3 days
Excerpt: (§1) Human breast cancer cells MDA-MB 231, MDA-MB453, ovarian cancer cells OVCAR3 and A2780, colorectal cancer cells HCT-116 and WiDr, and lung cancer cell Calu-6 were purchased from BNCC. DMEM medium (Bio-Channel), DMSO (dimethyl sulfoxide), MTT (thiazole blue), 0.25% EDTA-Tripsin (pancreatin digestive juice), 1×PBS (phosphate buffer, PH7.2), 96-well plate (Corning), fetal bovine serum (FBS), 10,000 U/mL penicillin-G/streptomycin, high-speed freezing centrifuge (EPPENDORF 5810R), enzyme-linked immunosorbent assay (Tecan Spark).
(§2) 1. Cell Plating • A) Tumor cells were cultured to 80-90% density in DMEM (high sugar, containing 10% FBS and 100 U/mL penicillin-G/streptomycin) at 37° C., 5% CO2 and saturated humidity. • B) The culture medium was removed from the 10 cm culture dish. • C) Cells were washed with 10 ml 1×PBS. • D) 4 ml of 0.25% EDTA-Tripsin was added to an incubator to digest pancreatin for 5 minutes at 37° C. and 5% CO2, transferred to a 15 ml centrifuge tube, centrifuged for 5 minutes at 200 g, and supernatant was discarded to obtain cell precipitation. • E) The cell precipitation was resuspended with 4 ml DMEM medium, counted and adjusted to 50,000 cells/ml. • F) Cell suspension was added to a 96-well plate with a volume of 100 μL per well and cultured overnight in a 5% CO2 incubator at 37° C.
(§3) Compound Dilution • A) Preparing the tested compound gradient dilution solution: the tested compounds were prepared into 10 mM and 1 mM storage solution respectively. Firstly, 1 μl and 0.5 μl of 10 mM storage solution were dissolved in 1 ml of DMSO-free culture solution, respectively, to obtain diluted compounds with concentrations of 10 and 5 μM. Then, 1.5 μl of 1 mM storage solution was dissolved in 1.5 ml of DMSO-free culture solution to obtain a dilution compound with a concentration of 1 μM, and then diluted with a 3-fold continuous gradient with […] culture solution for a total of 7 concentrations. The concentrations of all 10 diluted compounds mentioned above were as follows: • 10 μM, 5 μM, 1 μM, 333.33 nM, 111.11 nM, 37.03 nM, 12.35 nM, 4.15 nM, 1.37 nM, 0.46 nM • B) After full mixing, 100 μL of culture compound solution was taken to replace the culture solution in the cell culture plate, with 4 duplicated wells at each concentration; • C) The cells were transferred to incubator to incubate for 3 days.
(§4) 3. MTT Detection • A) The cell culture plate was taken out and added with 5 mg/ml MTT 10 μL in the biosafety cabinet; • B) The cell culture plate was put back into the incubator and continued to incubate for 3 hours; • C) The cell culture plate was taken out to remove the culture solution, 100 μL isopropanol (containing 0.4 mM HCl, 0.1% NP-40) was added, shaking at room temperature for 30 minutes; • D) The absorbance value was measured at 570 nm on TECAN enzyme linked immunosorbent assay.

[2] = system: breast cancer cells MDA-MB453; test: Cell anti-proliferation experiment, MTT (Table 2); assay type: cell-based; settings: Homo sapiens, MDA-MB-453, 72 h, incubate 3 days
Excerpt: as §1, §2, §3, §4

[3] = system: colorectal cancer cells HCT-116; test: Cell anti-proliferation experiment, MTT (Table 2); assay type: cell-based; settings: Homo sapiens, HCT-116, 72 h, incubate 3 days
Excerpt: as §1, §2, §3, §4

lung cancer cell Calu-6 = test: Cell anti-proliferation experiment, MTT (Table 2); assay type: cell-based; settings: Homo sapiens, Calu-6, 72 h, incubate 3 days
Excerpt: as §1, §2, §3, §4

[4] = system: ovarian cancer cells OVCAR3; test: Cell anti-proliferation experiment, MTT (Table 2); assay type: cell-based; settings: Homo sapiens, OVCAR-3, 72 h, incubate 3 days
Excerpt: as §1, §2, §3, §4

[5] = system: colorectal cancer cells WiDr; test: Cell anti-proliferation experiment, MTT (Table 2); assay type: cell-based, human; settings: incubate 3 days
Excerpt: as §1, §2, §3, §4

[6] = system: ovarian cancer cells A2780; test: Cell anti-proliferation experiment, MTT (Table 2); assay type: cell-based, human; settings: incubate 3 days
Excerpt: as §1, §2, §3, §4

[7] = target: T1, CDK7/Cyclin H/MAT1 kinase (Homo sapiens (Human), UniProt P50613); test: Enzyme activity test, mobility shift assay (Table 3); assay type: biochemical; settings: 2 mM ATP, pre-incubated 0 and 60 minutes
T1 sequence (P50613 whole entry): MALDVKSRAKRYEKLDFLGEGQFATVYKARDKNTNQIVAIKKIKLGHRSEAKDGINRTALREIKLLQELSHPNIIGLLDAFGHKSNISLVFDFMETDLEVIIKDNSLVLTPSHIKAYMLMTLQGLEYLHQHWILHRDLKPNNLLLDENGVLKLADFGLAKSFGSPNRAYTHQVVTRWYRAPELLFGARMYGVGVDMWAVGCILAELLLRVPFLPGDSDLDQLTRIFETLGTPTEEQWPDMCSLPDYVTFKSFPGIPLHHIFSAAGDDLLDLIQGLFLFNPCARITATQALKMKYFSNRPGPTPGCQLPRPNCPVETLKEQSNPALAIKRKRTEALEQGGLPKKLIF
T1 sequence (P51946 whole entry partner): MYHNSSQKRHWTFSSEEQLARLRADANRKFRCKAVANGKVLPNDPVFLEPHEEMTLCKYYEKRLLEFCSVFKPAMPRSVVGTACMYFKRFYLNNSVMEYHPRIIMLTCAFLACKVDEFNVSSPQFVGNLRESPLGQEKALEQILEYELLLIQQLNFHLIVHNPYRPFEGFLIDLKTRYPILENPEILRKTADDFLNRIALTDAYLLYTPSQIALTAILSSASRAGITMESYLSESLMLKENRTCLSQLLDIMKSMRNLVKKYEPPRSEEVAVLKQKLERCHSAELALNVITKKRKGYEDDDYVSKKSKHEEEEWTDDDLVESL
T1 sequence (P51948 whole entry partner): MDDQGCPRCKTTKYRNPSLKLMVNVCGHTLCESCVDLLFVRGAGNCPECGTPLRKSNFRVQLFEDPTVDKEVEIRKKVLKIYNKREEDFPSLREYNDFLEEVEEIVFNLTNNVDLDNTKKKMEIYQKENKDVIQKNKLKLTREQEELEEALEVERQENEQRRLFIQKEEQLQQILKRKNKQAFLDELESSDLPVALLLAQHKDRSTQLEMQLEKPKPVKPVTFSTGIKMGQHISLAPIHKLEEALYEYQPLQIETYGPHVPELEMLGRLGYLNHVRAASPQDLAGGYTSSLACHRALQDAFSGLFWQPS
Method: IC50 values of the compounds for CDK7 kinase were detected in Wuxi Biortus Biosciences Co. Ltd.
The compound powder was dissolved in 100% DMSO to prepare a 10 mM storage solution. The storage solution was further diluted to 0.5 mM as the initial concentration, and continuously diluted 3 times to obtain 10 compound solutions with different concentrations. The compound and enzyme were pre-incubated for 0 minutes and 60 minutes, respectively, using duplicate detection.
was used as a positive control, using Mobility shift say method, to detect CDK kinase (such as CDK7, CDK9, CDK12 and CDK2) activity of the compound.

[8] = target: T1, CDK7/Cyclin H/MAT1 kinase; test: Enzyme activity test, mobility shift assay (Table 1); assay type: biochemical; settings: 2 mM ATP; pre-incubated 0 and 60 minutes
CDK2/Cyclin El = CDK2/Cyclin El (Homo sapiens (Human), UniProt P24941); test: as above; assay type: biochemical; settings: 2 mM ATP; read-out: CDK2 kinase IC50
Procedure, shortened: (§5)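 Human CDK9/Cyclin T1 and CDK2/Cyclin E1 activity measured by mobility shift assay. Compounds tested as 10-point, 3-fold dilution series starting at 0.5 mM (diluted from 10 mM DMSO stock), in duplicate, with 0 min or 60 min compound–enzyme pre-incubation.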

CDK9/Cyclin Tl = CDK9/Cyclin Tl (Homo sapiens (Human), UniProt P50750); test: as above; assay type: biochemical; settings: 2 mM ATP; read-out: CDK9 kinase IC50
CDK9/Cyclin Tl, sequence (P50750 whole entry): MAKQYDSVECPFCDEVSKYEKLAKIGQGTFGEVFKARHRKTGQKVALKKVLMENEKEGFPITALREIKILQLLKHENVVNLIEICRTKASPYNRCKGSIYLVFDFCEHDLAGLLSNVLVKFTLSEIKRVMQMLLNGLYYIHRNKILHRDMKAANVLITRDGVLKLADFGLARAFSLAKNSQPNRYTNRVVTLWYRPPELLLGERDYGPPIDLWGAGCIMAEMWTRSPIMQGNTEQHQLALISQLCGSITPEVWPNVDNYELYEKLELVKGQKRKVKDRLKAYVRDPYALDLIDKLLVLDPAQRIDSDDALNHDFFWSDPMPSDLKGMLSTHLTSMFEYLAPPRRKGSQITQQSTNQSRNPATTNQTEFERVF
CDK9/Cyclin Tl, sequence (O60563 whole entry partner): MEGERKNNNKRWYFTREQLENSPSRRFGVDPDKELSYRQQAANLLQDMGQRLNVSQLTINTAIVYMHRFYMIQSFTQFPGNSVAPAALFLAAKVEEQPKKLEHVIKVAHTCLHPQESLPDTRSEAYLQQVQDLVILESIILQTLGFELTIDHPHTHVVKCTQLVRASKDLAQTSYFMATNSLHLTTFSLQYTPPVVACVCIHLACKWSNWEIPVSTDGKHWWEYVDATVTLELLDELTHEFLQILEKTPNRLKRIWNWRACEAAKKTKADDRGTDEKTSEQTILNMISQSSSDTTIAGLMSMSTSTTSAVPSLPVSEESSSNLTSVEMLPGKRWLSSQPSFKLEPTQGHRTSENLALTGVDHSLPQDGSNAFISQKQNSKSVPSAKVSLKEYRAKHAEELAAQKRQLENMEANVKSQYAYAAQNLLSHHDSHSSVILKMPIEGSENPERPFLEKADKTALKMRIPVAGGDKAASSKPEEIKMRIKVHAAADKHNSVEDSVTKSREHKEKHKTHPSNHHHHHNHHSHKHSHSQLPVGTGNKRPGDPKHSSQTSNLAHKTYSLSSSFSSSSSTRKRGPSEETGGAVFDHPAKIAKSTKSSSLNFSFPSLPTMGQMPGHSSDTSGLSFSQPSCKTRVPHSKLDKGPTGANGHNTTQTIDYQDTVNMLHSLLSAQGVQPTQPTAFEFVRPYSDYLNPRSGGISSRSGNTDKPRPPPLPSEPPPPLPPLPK
Procedure, shortened: as §5

[9] = target: CDK12 (aa686-1082)/Cyclin K (Homo sapiens (Human), UniProt Q9NYV4); test: as above; assay type: biochemical; settings: 2 mM ATP; read-out: CDK12 kinase IC50
CDK12 (aa686-1082)/Cyclin K, sequence (Q9NYV4 686-1082): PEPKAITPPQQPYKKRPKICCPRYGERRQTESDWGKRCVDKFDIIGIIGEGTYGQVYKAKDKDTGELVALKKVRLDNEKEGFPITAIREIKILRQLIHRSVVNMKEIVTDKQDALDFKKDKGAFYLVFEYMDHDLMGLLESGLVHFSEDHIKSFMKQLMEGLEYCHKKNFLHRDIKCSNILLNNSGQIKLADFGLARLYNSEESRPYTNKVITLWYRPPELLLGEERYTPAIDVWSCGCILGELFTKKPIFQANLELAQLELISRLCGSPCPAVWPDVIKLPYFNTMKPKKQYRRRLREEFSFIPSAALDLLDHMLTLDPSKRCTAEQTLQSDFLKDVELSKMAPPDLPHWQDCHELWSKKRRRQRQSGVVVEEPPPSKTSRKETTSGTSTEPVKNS
CDK12 (aa686-1082)/Cyclin K, sequence (O75909 whole entry partner, the tested form may be a part): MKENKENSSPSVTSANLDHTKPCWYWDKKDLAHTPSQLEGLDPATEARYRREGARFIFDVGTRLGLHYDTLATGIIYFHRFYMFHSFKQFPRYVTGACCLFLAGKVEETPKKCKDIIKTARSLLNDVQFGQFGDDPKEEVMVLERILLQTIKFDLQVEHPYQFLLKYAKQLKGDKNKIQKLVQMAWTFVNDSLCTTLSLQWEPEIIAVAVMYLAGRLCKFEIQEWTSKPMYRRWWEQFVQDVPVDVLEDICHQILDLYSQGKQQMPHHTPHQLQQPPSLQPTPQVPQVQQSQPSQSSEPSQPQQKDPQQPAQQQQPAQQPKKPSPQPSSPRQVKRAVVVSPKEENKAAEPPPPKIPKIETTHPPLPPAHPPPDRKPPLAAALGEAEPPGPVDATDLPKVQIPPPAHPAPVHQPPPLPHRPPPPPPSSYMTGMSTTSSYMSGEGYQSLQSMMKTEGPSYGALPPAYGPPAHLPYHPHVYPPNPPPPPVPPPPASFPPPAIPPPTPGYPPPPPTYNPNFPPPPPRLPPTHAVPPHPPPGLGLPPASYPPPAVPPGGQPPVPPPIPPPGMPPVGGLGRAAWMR
Procedure, shortened: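 Mobility shift kinase assay on CDK9/Cyclin T1 and CDK12 (aa686-1082)/Cyclin K. Ten-point 3-fold dilution series started from a 0.5 mM intermediate solution in DMSO, with compound–enzyme pre-incubation of 0 or 60 min, in duplicate. Staurosporine served as positive control.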

SMILES	IC50 [4] [nM]	IC50 ([6]; Homo sapiens, A2780, 72 h) [nM]	IC50 [8] [nM]	IC50 (CDK2/Cyclin El) [nM]	IC50 (CDK9/Cyclin Tl) [nM]	IC50 [9] [nM]	also measured
CC1(C)CC[C@H](Nc2ncc(C(F)(F)F)c(-c3c[nH]c4c(P(C)(C)=O)c(C#N)ccc34)n2)CN1 [Compound 101, reference compound]	246	8.76	–	–	–	–	IC50 [1]: 1660 nM; IC50 [2]: 112 nM; IC50 [3]: 88.8 nM; IC50 (lung cancer cell Calu-6): 207 nM; IC50 ([5]; Homo sapiens, WiDr, 72 h): 11.2 nM
CC1(C)CC[C@H](Nc2ncc(C(F)(F)F)c(-c3c[nH]c4c(P(C)(C)=O)c(N5CCCCC5=O)ccc34)n2)CN1 [Example 02]	–	–	–	–	–	–	IC50 [7]: < 10 nM
Cc1cc(Nc2ncc(C(F)(F)F)c(-c3c[nH]c4cc(C#N)ccc34)n2)n[nH]1 [Example 12]	–	–	–	–	–	–	IC50 [7]: 10 to 500 nM
CC1(C)CC[C@H](Nc2ncc(C(F)(F)F)c(-c3c[nH]c4c(S(=O)(=O)C5CCCC5)c(C#N)ccc34)n2)CN1 [Example 23]	–	–	–	–	–	–	IC50 [7]: < 10 nM
CC1(C)CC[C@H](Nc2nc(-c3c[nH]c4c(P(C)(C)=O)c(C#N)ccc34)c3ccccc3n2)CN1 [Example 24]	–	–	–	–	–	–	IC50 [7]: 10 to 500 nM
Cc1cc(Nc2ncc(C(F)(F)F)c(-c3c[nH]c4c(P(C)(C)=O)c(C#N)ccc34)n2)n[nH]1 [Example 28]	–	–	–	–	–	–	IC50 [7]: < 10 nM
COC(=O)N[C@H]1CCC[C@@H](Nc2ncc(C(F)(F)F)c(-c3c[nH]c4c(P(C)(C)=O)c(C#N)ccc34)n2)C1 [Example 66]	–	–	–	–	–	–	IC50 [7]: < 10 nM
COC(=O)Nc1ccc2c(-c3nc(N[C@H]4CCCNC4)ncc3C(F)(F)F)c[nH]c2c1Br [Example T-01]	41.8	7.97	< 50	> 500	> 500	> 500	IC50 [1]: 145 nM; IC50 [2]: 51.9 nM; IC50 [3]: 62.5 nM; IC50 (lung cancer cell Calu-6): 68.9 nM; IC50 ([5]; Homo sapiens, WiDr, 72 h): 12.2 nM
COC(=O)Nc1ccc2c(-c3nc(N[C@H]4CCCNC4)ncc3C(F)(F)F)c[nH]c2c1C1CC1 [Example T-17]	–	4.76	< 50	> 500	> 500	> 500	IC50 ([5]; Homo sapiens, WiDr, 72 h): 26.8 nM
C=C(C)c1c(NC(=O)OC)ccc2c(-c3nc(N[C@H]4CCCNC4)ncc3C(F)(F)F)c[nH]c12 [Example T-70]	–	–	< 50	> 500	> 500	> 500	IC50 [5]: 45.5 nM; IC50 [6]: 4.47 nM
COC(=O)Nc1ccc2c(-c3nc(N[C@H]4CCC5(CC5)NC4)ncc3C(F)(F)F)c[nH]c2c1Cl [Example T-81]	55.5	1.26	< 50	> 500	> 500	> 500	–
COC(=O)Nc1ccc2c(-c3nc(N[C@H]4CCCNC4)ncc3C(F)(F)F)c[nH]c2c1C(C)=O [Example T-98]	127	5.55	–	–	–	–	–
COC(=O)Nc1ccc2c(-c3nc(N[C@H]4CCC5(CC5)NC4)ncc3C(F)(F)F)c[nH]c2c1C1CC1 [Example T-128]	9.08	8.68	< 50	> 500	> 500	> 500	–
COC(=O)Nc1ccc2c(-c3nc(N[C@H]4CCC5(CC5)NC4)ncc3C(F)(F)F)c[nH]c2c1C(C)=O [Example T-135]	161	4.61	< 50	> 500	> 500	> 500	–
COC(=O)Nc1ccc2c(-c3nc(N[C@H]4CCC5(CC5)NC4)ncc3C(F)(F)F)c[nH]c2c1Br [Example T-142]	120	5.05	< 50	> 500	> 500	> 500	–

More lines, main results first:

IC50 [4] [nM]	IC50 ([6]; Homo sapiens, A2780, 72 h) [nM]	IC50 [8] [nM]	IC50 (CDK2/Cyclin El) [nM]	IC50 (CDK9/Cyclin Tl) [nM]	IC50 [9] [nM]	SMILES	also measured
215	8.73	< 50	> 500	> 500	> 500	COC(=O)Nc1ccc2c(-c3nc(N[C@H]4CCCNC4)ncc3C(F)(F)F)c[nH]c2c1C(F)(F)F [Example T-34]	IC50 [1]: 573 nM; IC50 [2]: 120 nM
197	–	< 50	> 500	> 500	> 500	COC(=O)Nc1ccc2c(-c3nc(N[C@H]4CCC(C)(C)NC4)ncc3C(F)(F)F)c[nH]c2c1Br [Example T-36]	IC50 [1]: 471 nM; IC50 [2]: 116 nM; IC50 (lung cancer cell Calu-6): 209 nM
25.1	7.65	< 50	50 to 500	> 500	> 500	COC(=O)Nc1ccc2c(-c3nc(N[C@H]4CCCNC4)ncc3C(F)(F)F)c[nH]c2c1OC [Example T-37]	IC50 [1]: 52.7 nM; IC50 [2]: 10.8 nM; IC50 [3]: 47.8 nM; IC50 (lung cancer cell Calu-6): 40.1 nM; IC50 ([5]; Homo sapiens, WiDr, 72 h): 13.8 nM
80.2	8.75	< 50	–	–	–	COC(=O)Nc1ccc2c(-c3nc(N[C@H]4CCC(C)(C)NC4)ncc3C(F)(F)F)c[nH]c2c1OCC(F)(F)F [Example T-91]	–
53.4	1.54	< 50	–	–	–	COC(=O)Nc1ccc2c(-c3nc(N[C@H]4CCCNC4)ncc3C(F)(F)F)c[nH]c2c1C(C)(F)F [Example T-99]	–
–	0.54	< 50	–	–	–	COC(=O)Nc1ccc2c(-c3nc(N[C@H]4CCCNC4)ncc3C(F)(F)F)c[nH]c2c1OC(F)(F)F [Example T-122]	–
100	4.52	< 50	> 500	> 500	> 500	COC(=O)Nc1ccc2c(-c3nc(N[C@H]4CCC(C)(C)NC4)ncc3C(F)(F)F)c[nH]c2c1OC [Example T-132]	–
161	13.5	< 50	> 500	> 500	> 500	COC(=O)Nc1ccc2c(-c3nc(N[C@H]4CCC5(CC5)NC4)ncc3C(F)(F)F)c[nH]c2c1OCC(F)(F)F [Example T-150]	–
–	1.23	< 50	> 500	> 500	> 500	COC(=O)Nc1ccc2c(-c3nc(N[C@H]4CCC5(CC5)NC4)ncc3C(F)(F)F)c[nH]c2c1C(F)F [Example T-156]	–
